System: 857933-349-R-J2-PDC complex spheroid viability
Assay: Anticancer human tumor 857933-349-R-J2-PDC patient-derived colon adenocarcinoma cell line growth inhibition [POLQ]
Conditions: for IC50: curve of first compound; for viability, T/C: stronger effect = lower value
How it was run: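 Growth inhibition in 3D: complex spheroids (tumor PDC, HUVEC, MSC) treated with POLQ inhibitor combinations; where Cmax unknown, highest tested concentration 10 microM, except SN-38 at 1 microM.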

[1] = second compound 0.0316 µM, first compound 0.0316 µM
[2] = second compound 0.0316 µM, first compound 0.1 µM
[3] = second compound 0.0316 µM, first compound 0.316 µM
[4] = second compound 0.0316 µM, first compound 1 µM
[5] = second compound 0.0316 µM, first compound 3.16 µM
[6] = second compound 0.0316 µM, first compound 10 µM
[7] = second compound 0.1 µM, first compound 0.0316 µM
[8] = second compound 0.1 µM, first compound 0.1 µM
[9] = second compound 0.1 µM, first compound 0.316 µM
[10] = second compound 0.1 µM, first compound 1 µM
[11] = second compound 0.1 µM, first compound 3.16 µM
[12] = second compound 0.1 µM, first compound 10 µM
[13] = second compound 0.316 µM, first compound 0.0316 µM
[14] = second compound 0.316 µM, first compound 0.1 µM
[15] = second compound 0.316 µM, first compound 0.316 µM
[16] = second compound 0.316 µM, first compound 1 µM
[17] = second compound 0.316 µM, first compound 3.16 µM
[18] = second compound 0.316 µM, first compound 10 µM
[19] = second compound 1 µM, first compound 0.0316 µM
[20] = second compound 1 µM, first compound 0.1 µM
[21] = second compound 1 µM, first compound 0.316 µM
[22] = second compound 1 µM, first compound 1 µM
[23] = second compound 1 µM, first compound 3.16 µM
[24] = second compound 1 µM, first compound 10 µM
[25] = second compound 3.16 µM, first compound 0.0316 µM
[26] = second compound 3.16 µM, first compound 0.1 µM
[27] = second compound 3.16 µM, first compound 0.316 µM
[28] = second compound 3.16 µM, first compound 1 µM
[29] = second compound 3.16 µM, first compound 3.16 µM
[30] = second compound 3.16 µM, first compound 10 µM
[31] = second compound 10 µM, first compound 0.0316 µM
[32] = second compound 10 µM, first compound 0.1 µM
[33] = second compound 10 µM, first compound 0.316 µM
[34] = second compound 10 µM, first compound 1 µM
[35] = second compound 10 µM, first compound 3.16 µM
[36] = second compound 10 µM, first compound 10 µM
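Also: spheroids exposed to compounds for seven days before readout.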

Question: What does the source list for `COc1cc(C2c3cc4c(cc3C(OC3OC5COC(C)OC5C(O)C3O)C3COC(=O)C23)OCO4)cc(OC)c1O` (stereo not drawn) + COC1C(OC(N)=O)C(O)C(Oc2ccc3c(O)c(NC(=O)c4ccc(O)c(CC=C(C)C)c4)c(=O)oc3c2C)OC1(C)C?
Answer: IC50 (second compound 0.0316 µM): 352 nM; IC50 (second compound 0.1 µM): 399 nM; IC50 (second compound 0.316 µM): 488 nM; IC50 (second compound 1 µM): 453 nM; IC50 (second compound 3.16 µM): 358 nM; IC50 (second compound 10 µM): 386 nM; viability, T/C [1]: 80.7%; viability, T/C [2]: 88.3%; viability, T/C [3]: 51.3%; viability, T/C [4]: 46.2%; viability, T/C [5]: 36.1%; viability, T/C [6]: 28.7%; viability, T/C [7]: 71.1%; viability, T/C [8]: 84.7%; viability, T/C [9]: 53.5%; viability, T/C [10]: 42.3%; viability, T/C [11]: 35.5%; viability, T/C [12]: 30.4%; viability, T/C [13]: 74.1%; viability, T/C [14]: 79.3%; viability, T/C [15]: 54.6%; viability, T/C [16]: 41%; viability, T/C [17]: 34.7%; viability, T/C [18]: 29.9%; viability, T/C [19]: 81.9%; viability, T/C [20]: 71.3%; viability, T/C [21]: 54.6%; viability, T/C [22]: 39.6%; viability, T/C [23]: 34.2%; viability, T/C [24]: 29.9%; viability, T/C [25]: 88.2%; viability, T/C [26]: 99%; viability, T/C [27]: 52.1%; viability, T/C [28]: 37.5%; viability, T/C [29]: 30.3%; viability, T/C [30]: 30.1%; viability, T/C [31]: 94.5%; viability, T/C [32]: 65.7%; viability, T/C [33]: 54.6%; viability, T/C [34]: 39.8%; viability, T/C [35]: 37.6%; viability, T/C [36]: 32.1%

Question: How did the IC50 (second compound 0.0316 µM) turn out when `O=c1[nH]cc(F)c(=O)[nH]1` + Cc1cccc(N(C)C(=O)C2C(O)CCN2c2nc(C)cc(C(F)(F)F)c2C#N)c1 was run?
Answer: 2470 nM

Question: And the IC50 (second compound 0.1 µM)?
Answer: 3060 nM

Question: And the IC50 (second compound 0.316 µM)?
Answer: 3100 nM

Question: What about the IC50 (second compound 1 µM) of the same compound?
Answer: 3340 nM

Question: And the IC50 (second compound 3.16 µM)?
Answer: 2930 nM

Question: What about the IC50 (second compound 10 µM) of the same compound?
Answer: 2100 nM

Question: And the viability, T/C [1]?
Answer: 90.7%

Question: What about the viability, T/C [2] of the same compound?
Answer: 85.8%

Question: What about the viability, T/C [3] of the same compound?
Answer: 95.5%

Question: What about the viability, T/C [4] of the same compound?
Answer: 77.8%

Question: And the viability, T/C [5]?
Answer: 42.6%

Question: And the viability, T/C [6]?
Answer: 29.5%

Question: And the viability, T/C [7]?
Answer: 123%

Question: And the viability, T/C [8]?
Answer: 109%

Question: What about the viability, T/C [9] of the same compound?
Answer: 106%

Question: And the viability, T/C [10]?
Answer: 74.9%

Question: What about the viability, T/C [11] of the same compound?
Answer: 50%

Question: And the viability, T/C [12]?
Answer: 30%

Question: And the viability, T/C [13]?
Answer: 102%

Question: What about the viability, T/C [14] of the same compound?
Answer: 105%

Question: And the viability, T/C [15]?
Answer: 80.3%

Question: What about the viability, T/C [16] of the same compound?
Answer: 82%

Question: And the viability, T/C [17]?
Answer: 43.9%

Question: And the viability, T/C [18]?
Answer: 34.8%

Question: And the viability, T/C [19]?
Answer: 94.3%

Question: What about the viability, T/C [20] of the same compound?
Answer: 95.3%

Question: And the viability, T/C [21]?
Answer: 77.4%

Question: And the viability, T/C [22]?
Answer: 85.8%

Question: And the viability, T/C [23]?
Answer: 50.7%

Question: And the viability, T/C [24]?
Answer: 30.6%

Question: What about the viability, T/C [25] of the same compound?
Answer: 93.8%

Question: What about the viability, T/C [26] of the same compound?
Answer: 92.6%

Question: What about the viability, T/C [27] of the same compound?
Answer: 85.8%

Question: And the viability, T/C [28]?
Answer: 69.7%

Question: What about the viability, T/C [29] of the same compound?
Answer: 49.1%

Question: What about the viability, T/C [30] of the same compound?
Answer: 27.6%

Question: What about the viability, T/C [31] of the same compound?
Answer: 90.8%

Question: What about the viability, T/C [32] of the same compound?
Answer: 122%

Question: What about the viability, T/C [33] of the same compound?
Answer: 99.2%

Question: What about the viability, T/C [34] of the same compound?
Answer: 68.9%

Question: What about the viability, T/C [35] of the same compound?
Answer: 41.9%

Question: And the viability, T/C [36]?
Answer: 29.3%

Question: How did the IC50 (second compound 0.0316 µM) turn out when `COc1cc2cc(C(=O)CCC(=O)O)sc2cc1OC` + COC1C(OC(N)=O)C(O)C(Oc2ccc3c(O)c(NC(=O)c4ccc(O)c(CC=C(C)C)c4)c(=O)oc3c2C)OC1(C)C was run?
Answer: > 10000 nM

Question: What about the IC50 (second compound 0.1 µM) of the same compound?
Answer: > 10000 nM

Question: What about the IC50 (second compound 0.316 µM) of the same compound?
Answer: > 10000 nM

Question: What about the IC50 (second compound 1 µM) of the same compound?
Answer: > 10000 nM

Question: And the IC50 (second compound 3.16 µM)?
Answer: > 10000 nM

Question: What about the IC50 (second compound 10 µM) of the same compound?
Answer: > 10000 nM

Question: And the viability, T/C [1]?
Answer: 82%

Question: What about the viability, T/C [2] of the same compound?
Answer: 98.3%

Question: What about the viability, T/C [3] of the same compound?
Answer: 79.9%

Question: What about the viability, T/C [4] of the same compound?
Answer: 79%

Question: And the viability, T/C [5]?
Answer: 106%

Question: What about the viability, T/C [6] of the same compound?
Answer: 93.8%

Question: What about the viability, T/C [7] of the same compound?
Answer: 91.4%

Question: And the viability, T/C [8]?
Answer: 95.5%

Question: What about the viability, T/C [9] of the same compound?
Answer: 98.1%

Question: And the viability, T/C [10]?
Answer: 79.2%

Question: What about the viability, T/C [11] of the same compound?
Answer: 92.5%

Question: And the viability, T/C [12]?
Answer: 111%

Question: What about the viability, T/C [13] of the same compound?
Answer: 104%

Question: And the viability, T/C [14]?
Answer: 102%

Question: What about the viability, T/C [15] of the same compound?
Answer: 84%

Question: What about the viability, T/C [16] of the same compound?
Answer: 97.2%

Question: What about the viability, T/C [17] of the same compound?
Answer: 84.4%

Question: And the viability, T/C [18]?
Answer: 79.7%

Question: And the viability, T/C [19]?
Answer: 110%

Question: And the viability, T/C [20]?
Answer: 112%

Question: And the viability, T/C [21]?
Answer: 103%

Question: And the viability, T/C [22]?
Answer: 94.2%

Question: What about the viability, T/C [23] of the same compound?
Answer: 110%

Question: What about the viability, T/C [24] of the same compound?
Answer: 122%

Question: And the viability, T/C [25]?
Answer: 90.6%

Question: And the viability, T/C [26]?
Answer: 91.1%

Question: What about the viability, T/C [27] of the same compound?
Answer: 86.6%

Question: What about the viability, T/C [28] of the same compound?
Answer: 77.4%

Question: And the viability, T/C [29]?
Answer: 84.1%

Question: And the viability, T/C [30]?
Answer: 90%

Question: What about the viability, T/C [31] of the same compound?
Answer: 76.4%

Question: And the viability, T/C [32]?
Answer: 98.1%

Question: And the viability, T/C [33]?
Answer: 108%

Question: And the viability, T/C [34]?
Answer: 116%

Question: What about the viability, T/C [35] of the same compound?
Answer: 112%

Question: And the viability, T/C [36]?
Answer: 91.9%

Question: What does the source list for `COc1cccc(OCCCN)c1-c1cc(Nc2cnc(C#N)cn2)n[nH]1` + Nc1ccc(C#CCN(C(=O)Cc2ncc(C(F)(F)F)cc2C(F)(F)F)c2ccc(F)cc2)nn1?
Answer: IC50 (second compound 0.0316 µM): > 1000 nM; IC50 (second compound 0.1 µM): 685 nM; IC50 (second compound 0.316 µM): > 1000 nM; IC50 (second compound 1 µM): 670 nM; IC50 (second compound 3.16 µM): > 1000 nM; IC50 (second compound 10 µM): > 1000 nM; viability, T/C (second compound 0.0316 µM, first compound 0.00316 µM): 101%; viability, T/C (second compound 0.0316 µM, first compound 0.01 µM): 113%; viability, T/C [1]: 83.8%; viability, T/C [2]: 68.4%; viability, T/C [3]: 58.9%; viability, T/C [4]: 50.2%; viability, T/C (second compound 0.1 µM, first compound 0.00316 µM): 104%; viability, T/C (second compound 0.1 µM, first compound 0.01 µM): 107%; viability, T/C [7]: 76.9%; viability, T/C [8]: 88.8%; viability, T/C [9]: 58.2%; viability, T/C [10]: 44.3%; viability, T/C (second compound 0.316 µM, first compound 0.00316 µM): 105%; viability, T/C (second compound 0.316 µM, first compound 0.01 µM): 101%; viability, T/C [13]: 88.2%; viability, T/C [14]: 62.1%; viability, T/C [15]: 57.8%; viability, T/C [16]: 54.4%; viability, T/C (second compound 1 µM, first compound 0.00316 µM): 109%; viability, T/C (second compound 1 µM, first compound 0.01 µM): 88.5%; viability, T/C [19]: 80.5%; viability, T/C [20]: 70%; viability, T/C [21]: 53.9%; viability, T/C [22]: 47.1%; viability, T/C (second compound 3.16 µM, first compound 0.00316 µM): 101%; viability, T/C (second compound 3.16 µM, first compound 0.01 µM): 96.9%; viability, T/C [25]: 81.9%; viability, T/C [26]: 66.8%; viability, T/C [27]: 51.2%; viability, T/C [28]: 54.9%; viability, T/C (second compound 10 µM, first compound 0.00316 µM): 86.8%; viability, T/C (second compound 10 µM, first compound 0.01 µM): 102%; viability, T/C [31]: 76.9%; viability, T/C [32]: 69.8%; viability, T/C [33]: 57%; viability, T/C [34]: 54%

From PubChem BioAssay AID1963836 (Molecular Pharmacology Branch, DTP, NCI, 2024)
